This passage reports Km results from PMC7726675 (Data in Brief, 2020).

This experiment has as its system AAR^CAp. Conditions: read-out: KM^AcAcCoA; NADH fixed at 300 µM; 50 mM Tris pH 8, 5 mM MgCl2, 5 mM NaCl; 30 °C.

On to `CC(=O)CC(=O)SCCNC(=O)CCNC(=O)[C@H](O)C(C)(C)COP(=O)(O)OP(=O)(O)OC[C@H]1O[C@@H](n2cnc3c(N)ncnc32)[C@H](O)[C@@H]1OP(=O)(O)O` [acetoacetyl-CoA], for which the Michaelis constant (Km) was determined as 56.7 µM.

For orientation: Km means the concentration of substrate that gives half-maximal velocity.
